The test system of experiment [1] is alcohol dehydrogenase from Pichia pastoris (PPADH). As to the kind of experiment: biotransformation by purified PPADH with GDH co-factor regeneration, gas chromatography. Format: biochemical. The note with it: 2 hours reaction time.
Experiment [2] deals with T1, alcohol dehydrogenase from Pichia pastoris (PPADH) (Komagataella phaffii, UniProt C4R4L0). As to the kind of experiment: photometric assay, reduction of aldehydes and ketones by purified PPADH (NADPH, 340 nm). Format: biochemical, Pichia pastoris GS 115. The note with it: for relative activity: 38.6 U/mg with benzaldehyde set to 100%; for specific activity: purified PPADH, 10 mM substrate (sample 4: 20 mM), 0.2 mM NADPH, tris HCl pH 7, 25°C. How it is done:
(§1) In a first step, crude extract containing recombinant alcohol dehydrogenase from Pichia pastoris via cell disruption of E. coli BL21(DE3) overexpressing in vector pET28a-PPADH carrying an N-terminal 6xHis tag. Cells were resuspended in 10 mM tris HCl buffer (pH 7) to yield a 25% cell suspension and were disrupted by sonification under cooling. Three cycles of 2 min of 25% power output followed by 1 min cooling were used. After repeated centrifugation a cell-free crude extract was obtained. Afterwards the PPADH was purified as described in example 3c).
(§2) Determination of the enzymatic activity of the purified PPADH can be determined via a oxidation or reduction reaction. For determination of the reduction the following compounds were used: tris HCl buffer (100 mM, pH 7), 0.2 mM NADPH, 10 mM substrate selected from the aldehydes and ketones as given in Table 2 and 10 µl enzyme (purified PPADH). For determination of the oxidation the following compounds were used: tris HCl buffer (100 mM, pH 9), 0.2 mM NADP^+, 10 mM substrate selected from the alcohols as given in Table 3 and 10 µl enzyme (purified PPADH). The reaction was performed in 1 cm-cuvettes. The compounds were mixed in the cuvette used for the experiment, which was placed in the photometer and data recording was started. The enzyme solution was added only immediately before the start of the measurement. The activity of the enzyme was determined by photometric detection of the concentration of NADPH after a certain time interval. Measurement was carried out at a temperature of 25°C, a wavelength of 340 nm and over a time interval of 1 min. Table 2: enzymatic activity of PPADH regarding the reduction of different substrates determined by photometry

In experiment [3] the target is T1, alcohol dehydrogenase from Pichia pastoris (PPADH). In words: photometric assay, oxidation of alcohols by purified PPADH (NADP+, 340 nm). Format: biochemical, Pichia pastoris GS 115. The note with it: for specific activity: purified PPADH, 10 mM substrate, 0.2 mM NADP+, tris HCl pH 9, 25°C; for relative activity: 6.6 U/mg set to 100%. How it is done: as §1
as §2, with “min.” for “min. Table 2: enzymatic activity of PPADH regarding the reduction of different substrates determined by photometry”

Setting [4] is: acetophenone derivatives, related to the alcohol formed.

Data on 64 compounds can be found in patent EP3222712A1, “ALCOHOL DEHYDROGENASE FROM PICHIA PASTORIS AND USE THEREOF” (priority 2016, dated 2017).

Bounds are passed on as bounds.

T1 sequence (C4R4L0 entry or part of it): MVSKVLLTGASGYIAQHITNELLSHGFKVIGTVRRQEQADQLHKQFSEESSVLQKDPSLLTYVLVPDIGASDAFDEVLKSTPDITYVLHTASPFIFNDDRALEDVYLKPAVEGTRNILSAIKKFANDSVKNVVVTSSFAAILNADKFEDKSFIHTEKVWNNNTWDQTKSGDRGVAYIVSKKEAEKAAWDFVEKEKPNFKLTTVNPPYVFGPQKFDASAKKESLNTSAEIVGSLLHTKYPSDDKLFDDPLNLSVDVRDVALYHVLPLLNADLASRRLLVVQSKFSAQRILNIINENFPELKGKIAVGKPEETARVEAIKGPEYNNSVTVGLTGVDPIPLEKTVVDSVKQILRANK

For `COC(C)(CC(C)=O)c1ccccc1` (racemic) [NOD-VI-405], in experiment [1] (CF3-ketone derivatives), the level of turnover result is listed as “+++ (+++ =20-55 %)”. The turnover in experiment [1] (CF3-ketone derivatives, alcohol formed related to the reduction of (S)-ketone) came out at 20.3%.

In the case of `CC(=O)CC(O)(c1ccc(Cl)cc1)C(F)(F)F` (racemic) [Nod362], in experiment [1] (CF3-ketone derivatives), the level of turnover result is recorded as “+++++ (+++++ = 75 - 100 %)” and the turnover result is “quant”.

Consider `CC(=O)CC(O)(c1ccccc1)C(F)(F)F` (racemic) [compound 4], for which, in experiment [2], the relative activity was 97.2% and the specific activity is 37.5 U/mg.

With `CCC(O)CO` (stereo not drawn) [1,2-butanediol], the specific activity in experiment [3] was < 0.5 U/mg.

As for `CC(O)CO` (stereo not drawn) [1,2-propanediol], the specific activity in experiment [3] is given as < 0.5 U/mg.

Consider `CC(O)c1ccc(Cl)cc1` (stereo not drawn) [1-(4-chlorophenyl)ethanol], for which the specific activity in experiment [3] is < 0.5 U/mg.

As for `C=CC(O)CC` (stereo not drawn) [1-penten-3-ol], the specific activity in experiment [3] is < 0.5 U/mg.

For the compound `O=C(c1ccccc1Br)C(F)(F)F` [2'-Bromo-2,2,2-trifluoroacetophenone], in experiment [1] (acetophenone derivatives), the level of turnover entry is given as “+ (+=1-5%)”. Besides, the turnover in experiment [1] (setting [4]) is given as <5%.

For the compound `COc1ccccc1C(C)=O` [2'-Methoxyacetophenone], the level of turnover entry in experiment [1] (acetophenone derivatives) was “+ (+=1-5%)”. Further, the turnover in experiment [1] (setting [4]) is given as <5%.

For the compound `CC(=O)c1ccccc1Br` [2'-bromoacetophenone], the level of turnover entry in experiment [1] (acetophenone derivatives) is on record as “+ (+=1-5%)”. In experiment [1] (setting [4]), the turnover is on record as <5%.

For the compound `CC(O)C(C)O` (stereo not drawn) [2,3-butanediol], the specific activity in experiment [3] is listed as < 0.5 U/mg.

For `OC1C=CCCC1` (stereo not drawn) [2-cyclohexen-1-ol], the specific activity in experiment [3] is < 0.5 U/mg.

Consider `CCCCC(C)=O` [2-hexanone], for which, in experiment [2], the specific activity is listed as < 0.5 U/mg.

In the case of `CCCCCCCC(C)=O` [2-nonanone], the specific activity in experiment [2] is reported as < 0.5 U/mg.

`CCCCCCC(C)=O` [2-octanone]: the specific activity in experiment [2] is reported as < 0.5 U/mg.

For `CC(CO)c1ccccc1` (stereo not drawn) [2-phenyl-1-propanol], in experiment [3], the specific activity is < 0.5 U/mg.

With `CC1CC(=O)CC(C)(C)C1` (stereo not drawn) [3,3,5-trimethylcyclohexanone], in experiment [2], the specific activity is reported as < 0.5 U/mg.

`CCC(=O)C(O)CC` (stereo not drawn) [4-hydoxy-3-hexanone]: the specific activity in experiment [2] is given as < 0.5 U/mg.

In the case of `COC(C)(C)CC(C)=O` [4-methoxy-4-metyhl-2-pentanone], in experiment [2], the specific activity was < 0.5 U/mg.

`CC(=O)CC(C)C` [4-methyl-2-pentanone]: in experiment [2], the specific activity was < 0.5 U/mg.

With `CC(C)=C1CC[C@@H](C)CC1=O` [(+)-pulegon], in experiment [2], the specific activity is reported as < 0.5 U/mg.

Consider `C=C(C)[C@@H]1CC=C(C)C(=O)C1` [(-)-carvone], for which the specific activity in experiment [2] is < 0.5 U/mg.

As to `CC(C)[C@@H]1CC[C@@H](C)CC1=O` [(-)-menthone], the specific activity in experiment [2] is reported as < 0.5 U/mg.

On to `C[C@@H](O)c1ccccc1` [(R)-(+)-1-phenylethanol], for which, in experiment [3], the specific activity is recorded as < 0.5 U/mg.

For `CCCCCC[C@@H](C)O` [(R)-(-)-2-octanol], the specific activity in experiment [3] is on record as < 0.5 U/mg.

Take `C=CCC[C@@H](C)O` [(R)-(-)-5-hexen-2-ol]: in experiment [3], the specific activity was < 0.5 U/mg.

As for `CC[C@H](N)CO` [(S)-(+)-2-amino-1-butanol], the specific activity in experiment [3] is given as < 0.5 U/mg.

Take `CC[C@H](C)O` [(S)-(+)-2-butanol]: the specific activity in experiment [3] is on record as < 0.5 U/mg.

On to `CC(C)=O` [acetone], for which, in experiment [2], the specific activity is on record as < 0.5 U/mg.

On to `CC(=O)CCc1ccccc1` [benzylacetone], for which the specific activity in experiment [2] is < 0.5 U/mg.

Consider `OCc1ccccc1` [benzylalcohol], for which the specific activity in experiment [3] is < 0.5 U/mg.

Take `O=Cc1ccccc1` [compound 1, benzaldehyde]: in experiment [2], the relative activity is reported as 100.0% and the specific activity stood at 38.6 U/mg.

As to `CC(=O)c1ccccc1` [compound 2], in experiment [2], the relative activity came out at 0.2% and the specific activity amounted to 0.06 U/mg.

In the case of `O=C(c1ccccc1)C(F)(F)F` [compound 3], in experiment [2], the relative activity is reported as 0.3% and the specific activity is on record as 0.10 U/mg.

For the compound `CCCC=O` [compound 5], in experiment [2], the relative activity came to 176.2% and the specific activity worked out at 68.0 U/mg.

For `CCCC(C)C=O` (stereo not drawn) [compound 6], in experiment [2], the relative activity stood at 248.9% and the specific activity came to 96.1 U/mg.

Turning to `CCCCCC=O` [compound 7], in experiment [2], the relative activity came out at 73.9% and the specific activity was determined as 28.5 U/mg.

`CCC/C=C/C=O` [compound 8]: in experiment [2], the relative activity worked out at 97.2% and the specific activity turned out to be 37.5 U/mg.

Regarding `CC(C)=CCC/C(C)=C/C=O` [compound 9], in experiment [2], the relative activity worked out at 46.1% and the specific activity is recorded as 17.8 U/mg.

In the case of `CC(C)=CCCC(C)CC=O` (stereo not drawn) [compound 10], in experiment [2], the relative activity was found to be 71.9% and the specific activity is 27.8 U/mg.

Take `CCOC(=O)C(Cl)C(C)=O` (stereo not drawn) [compound 11]: in experiment [2], the relative activity came to 14.7% and the specific activity is 5.7 U/mg.

Consider `CCOC(=O)CC(=O)CCl` [compound 12], for which, in experiment [2], the relative activity is given as 98.3% and the specific activity stood at 38.0 U/mg.

For `CCCC(=O)CC(=O)OCC` [compound 13], in experiment [2], the relative activity is reported as 1.3% and the specific activity stood at 0.5 U/mg.

With `CC(=O)CC(C)=O` [compound 14], in experiment [2], the relative activity is reported as 8.5% and the specific activity was 3.3 U/mg.

On to `C[C@@H](CO)c1ccccc1` [compound 15], for which, in experiment [3], the relative activity was determined as 16.0% and the specific activity is given as 1.06 U/mg.

For `OCCc1ccccc1Br` [compound 16], in experiment [3], the relative activity is on record as 29.3% and the specific activity came to 1.94 U/mg.

Turning to `CCCCO` [compound 17], in experiment [3], the relative activity is 16.7% and the specific activity came to 1.11 U/mg.

Consider `CCCC(C)CO` (stereo not drawn) [compound 18], for which, in experiment [3], the relative activity turned out to be 30.9% and the specific activity was found to be 2.04 U/mg.

Regarding `CCCC(C)O` (stereo not drawn) [compound 19], in experiment [3], the relative activity stood at 38.3% and the specific activity was found to be 2.53 U/mg.

Regarding `C/C=C/C(C)O` (stereo not drawn) [compound 20], in experiment [3], the relative activity turned out to be 19.5% and the specific activity is on record as 1.29 U/mg.

For the compound `CCCCC(C)O` (stereo not drawn) [compound 22], in experiment [3], the relative activity is 54.9% and the specific activity is 3.62 U/mg.

`CCCC[C@H](C)O` [compound 23]: in experiment [3], the relative activity turned out to be 100.0% and the specific activity is listed as 6.61 U/mg.

As to `C=CCC[C@H](C)O` [compound 24], in experiment [3], the relative activity was 57.4% and the specific activity is 3.79 U/mg.

With `CCCCC[C@H](C)O` [compound 25], in experiment [3], the relative activity is 31.6% and the specific activity is 2.09 U/mg.

In the case of `CCCCCCC(C)O` (stereo not drawn) [compound 26], in experiment [3], the relative activity is 8.7% and the specific activity was 0.57 U/mg.

Consider `CC(C)=CCCC(C)=CCO` [compound 27], for which, in experiment [3], the relative activity is reported as 32.7% and the specific activity came to 2.16 U/mg.

As for `CC(C)=CCCC(C)=CCO` [compound 28], in experiment [3], the relative activity was 18.0% and the specific activity was found to be 1.19 U/mg.

Consider `OC1CCCCC1` [cyclohexanol], for which, in experiment [3], the specific activity is < 0.5 U/mg.

In the case of `O=C1C=CCCC1` [cyclohexen-1-on], the specific activity in experiment [2] is < 0.5 U/mg.

In the case of `CC1(C)COC(=O)C1=O` [dihydro-4,4-dimethyl-2,3-furandion], in experiment [2], the specific activity is given as < 0.5 U/mg.

On to `CCOC(C)=O` [ethylacetate], for which, in experiment [2], the specific activity is < 0.5 U/mg.

In the case of `CC12CCC(C1)C(C)(C)C2=O` (stereo not drawn) [fenchon], the specific activity in experiment [2] was < 0.5 U/mg.

With `C=CC(O)CCCCC` (stereo not drawn) [octen-3-ol], the specific activity in experiment [3] is recorded as < 0.5 U/mg.

Take `CCC(=O)c1ccccc1` [propiophenone]: in experiment [2], the specific activity was < 0.5 U/mg.
